According to ChEMBL document CHEMBL1955750, “Benzodiazepines and benzotriazepines as protein interaction inhibitors targeting bromodomains of the BET family” (Bioorg Med Chem, 2012):
Calls of active or inactive are those of the source. The calls are words filed in the database; no cut-off is given here.

Tests used:
[1] = molecular target: T1, Bromodomain-containing protein 4 (Homo sapiens, UniProt O60885); assay: Binding affinity to BRD4-BD2 assessed as change in melting temperature at 100 uM by protein stability shift assay
[2] = molecular target: Protein polybromo-1 (Homo sapiens) (UniProt Q86U86); assay: Binding affinity to PB1 assessed as change in melting temperature at 100 uM by protein stability shift assay
[3] = Binding affinity to LOC93349 assessed as change in melting temperature at 100 uM by protein stability shift assay
[4] = molecular target: Bromodomain-containing protein 2 (Homo sapiens) (UniProt P25440); assay: Binding affinity to BRD2-BD1 assessed as change in melting temperature at 100 uM by protein stability shift assay
[5] = molecular target: Bromodomain adjacent to zinc finger domain protein 2B (Homo sapiens) (UniProt Q9UIF8); assay: Binding affinity to BAZ2B assessed as change in melting temperature at 100 uM by protein stability shift assay
[6] = molecular target: Bromodomain-containing protein 3 (Homo sapiens) (UniProt Q15059); assay: Binding affinity to BRD3-BD1 assessed as change in melting temperature at 100 uM by protein stability shift assay
[7] = molecular target: Bromodomain testis-specific protein (Homo sapiens) (UniProt Q58F21); assay: Binding affinity to BRDT-BD1 assessed as change in melting temperature at 100 uM by protein stability shift assay
[8] = molecular target: Histone acetyltransferase KAT2B (Homo sapiens) (UniProt Q92831); assay: Binding affinity to PCAF assessed as change in melting temperature at 100 uM by protein stability shift assay
[9] = molecular target: Bromodomain-containing protein 2 (Homo sapiens) (UniProt P25440); assay: Binding affinity to BRD2-BD2 assessed as change in melting temperature at 100 uM by protein stability shift assay
[10] = molecular target: CREB-binding protein (Homo sapiens) (UniProt Q92793); assay: Binding affinity to CREBBP assessed as change in melting temperature at 100 uM by protein stability shift assay
[11] = molecular target: Bromodomain-containing protein 3 (Homo sapiens) (UniProt Q15059); assay: Binding affinity to BRD3-BD2 assessed as change in melting temperature at 100 uM by protein stability shift assay
[12] = molecular target: T1, Bromodomain-containing protein 4; assay: Binding affinity to BRD4-BD1 assessed as change in melting temperature at 100 uM by protein stability shift assay
[13] = molecular target: T1, Bromodomain-containing protein 4; assay: Binding affinity to BRD4-BD1 assessed as change in melting temperature at 10 uM by protein stability shift assay
[14] = molecular target: Bromodomain-containing protein 2 (Homo sapiens) (UniProt P25440); assay: Binding affinity to BRD2-BD2 assessed as change in melting temperature at 10 uM by protein stability shift assay
[15] = Binding affinity to LOC93349 assessed as change in melting temperature at 10 uM by protein stability shift assay
[16] = molecular target: T1, Bromodomain-containing protein 4; assay: Binding affinity to BRD4-BD2 assessed as change in melting temperature at 10 uM by protein stability shift assay
[17] = molecular target: CREB-binding protein (Homo sapiens) (UniProt Q92793); assay: Binding affinity to CREBBP assessed as change in melting temperature at 10 uM by protein stability shift assay
[18] = molecular target: Histone acetyltransferase KAT2B (Homo sapiens) (UniProt Q92831); assay: Binding affinity to PCAF assessed as change in melting temperature at 10 uM by protein stability shift assay
[19] = molecular target: T1, Bromodomain-containing protein 4
Description: Binding affinity to BRD4-BD1 assessed as change in melting temperature by isothermal titration calorimetry

[20] = molecular target: Bromodomain adjacent to zinc finger domain protein 2B (Homo sapiens) (UniProt Q9UIF8); assay: Binding affinity to BAZ2B assessed as change in melting temperature at 10 uM by protein stability shift assay
[21] = molecular target: Bromodomain-containing protein 2 (Homo sapiens) (UniProt P25440); assay: Binding affinity to BRD2-BD1 assessed as change in melting temperature at 10 uM by protein stability shift assay
[22] = molecular target: Protein polybromo-1 (Homo sapiens) (UniProt Q86U86); assay: Binding affinity to PB1 assessed as change in melting temperature at 10 uM by protein stability shift assay
[23] = molecular target: Bromodomain testis-specific protein (Homo sapiens) (UniProt Q58F21); assay: Binding affinity to BRDT-BD1 assessed as change in melting temperature at 10 uM by protein stability shift assay
[24] = molecular target: Bromodomain-containing protein 3 (Homo sapiens) (UniProt Q15059); assay: Binding affinity to BRD3-BD2 assessed as change in melting temperature at 10 uM by protein stability shift assay
[25] = molecular target: Bromodomain-containing protein 3 (Homo sapiens) (UniProt Q15059); assay: Binding affinity to BRD3-BD1 assessed as change in melting temperature at 10 uM by protein stability shift assay

Sequence of Histone acetyltransferase KAT2B (Homo sapiens) (Q92831 whole entry, looked up): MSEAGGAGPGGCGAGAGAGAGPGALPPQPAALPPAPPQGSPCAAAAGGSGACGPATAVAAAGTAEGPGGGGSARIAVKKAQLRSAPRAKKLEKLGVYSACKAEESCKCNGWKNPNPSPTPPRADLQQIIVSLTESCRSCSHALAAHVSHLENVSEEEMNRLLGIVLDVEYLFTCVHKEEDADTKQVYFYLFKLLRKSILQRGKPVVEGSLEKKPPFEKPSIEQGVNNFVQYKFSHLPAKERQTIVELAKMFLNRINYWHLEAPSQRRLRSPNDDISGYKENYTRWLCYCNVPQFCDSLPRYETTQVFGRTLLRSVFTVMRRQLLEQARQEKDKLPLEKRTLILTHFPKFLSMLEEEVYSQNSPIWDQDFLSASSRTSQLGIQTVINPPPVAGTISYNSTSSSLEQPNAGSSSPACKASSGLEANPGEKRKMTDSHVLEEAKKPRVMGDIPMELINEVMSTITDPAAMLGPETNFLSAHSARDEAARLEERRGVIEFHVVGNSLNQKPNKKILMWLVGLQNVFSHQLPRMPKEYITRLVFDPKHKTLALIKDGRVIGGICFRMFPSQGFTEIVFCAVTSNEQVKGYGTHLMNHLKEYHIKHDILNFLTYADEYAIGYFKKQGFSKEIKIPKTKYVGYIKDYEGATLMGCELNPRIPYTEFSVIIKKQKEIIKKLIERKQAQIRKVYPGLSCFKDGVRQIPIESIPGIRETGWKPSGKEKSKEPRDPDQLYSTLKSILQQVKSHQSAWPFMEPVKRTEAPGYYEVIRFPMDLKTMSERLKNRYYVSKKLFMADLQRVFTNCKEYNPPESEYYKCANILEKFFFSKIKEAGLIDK
Sequence of Bromodomain-containing protein 2 (Homo sapiens) (P25440 whole entry, looked up, the tested form may be a part): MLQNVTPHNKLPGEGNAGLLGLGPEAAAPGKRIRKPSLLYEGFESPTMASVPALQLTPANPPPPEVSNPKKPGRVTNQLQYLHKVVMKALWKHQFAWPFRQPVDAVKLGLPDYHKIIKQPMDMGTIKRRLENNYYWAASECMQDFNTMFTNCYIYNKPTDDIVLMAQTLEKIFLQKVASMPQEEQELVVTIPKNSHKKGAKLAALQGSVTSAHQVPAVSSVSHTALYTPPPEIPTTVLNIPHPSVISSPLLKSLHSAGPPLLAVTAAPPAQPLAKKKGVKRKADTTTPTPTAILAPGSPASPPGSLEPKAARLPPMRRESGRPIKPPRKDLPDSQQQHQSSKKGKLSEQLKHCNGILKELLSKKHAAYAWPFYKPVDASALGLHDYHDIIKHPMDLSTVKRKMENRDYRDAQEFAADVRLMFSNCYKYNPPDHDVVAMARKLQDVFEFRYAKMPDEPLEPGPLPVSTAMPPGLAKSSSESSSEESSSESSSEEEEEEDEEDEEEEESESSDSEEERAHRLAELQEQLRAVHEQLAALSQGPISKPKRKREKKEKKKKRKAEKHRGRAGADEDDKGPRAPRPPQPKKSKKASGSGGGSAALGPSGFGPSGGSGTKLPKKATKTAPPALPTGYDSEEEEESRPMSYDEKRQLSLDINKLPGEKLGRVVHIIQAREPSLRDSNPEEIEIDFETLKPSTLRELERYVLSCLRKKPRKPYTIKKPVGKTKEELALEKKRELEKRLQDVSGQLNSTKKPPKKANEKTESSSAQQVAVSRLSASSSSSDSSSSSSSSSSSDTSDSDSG
Sequence of Bromodomain-containing protein 3 (Homo sapiens) (Q15059 2-726 limits assumed): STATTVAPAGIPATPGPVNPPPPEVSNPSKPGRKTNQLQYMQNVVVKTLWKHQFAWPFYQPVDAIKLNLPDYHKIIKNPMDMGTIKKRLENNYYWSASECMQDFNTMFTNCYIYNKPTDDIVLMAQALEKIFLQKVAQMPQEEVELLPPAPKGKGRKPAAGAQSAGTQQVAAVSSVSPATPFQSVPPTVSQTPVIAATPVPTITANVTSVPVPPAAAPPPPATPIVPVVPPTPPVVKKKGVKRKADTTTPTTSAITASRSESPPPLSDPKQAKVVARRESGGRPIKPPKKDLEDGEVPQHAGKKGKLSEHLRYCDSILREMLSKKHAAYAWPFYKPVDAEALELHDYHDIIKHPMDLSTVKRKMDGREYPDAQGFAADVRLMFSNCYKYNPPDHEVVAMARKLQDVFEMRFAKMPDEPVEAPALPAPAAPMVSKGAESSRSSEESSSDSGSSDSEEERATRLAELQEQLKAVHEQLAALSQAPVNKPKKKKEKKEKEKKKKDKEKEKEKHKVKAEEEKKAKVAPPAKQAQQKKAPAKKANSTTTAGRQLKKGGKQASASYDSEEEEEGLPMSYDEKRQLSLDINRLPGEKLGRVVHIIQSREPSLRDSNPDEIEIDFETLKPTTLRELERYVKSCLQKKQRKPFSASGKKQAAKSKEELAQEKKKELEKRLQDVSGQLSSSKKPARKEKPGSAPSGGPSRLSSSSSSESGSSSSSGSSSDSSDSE
Sequence of Protein polybromo-1 (Homo sapiens) (Q86U86 whole entry): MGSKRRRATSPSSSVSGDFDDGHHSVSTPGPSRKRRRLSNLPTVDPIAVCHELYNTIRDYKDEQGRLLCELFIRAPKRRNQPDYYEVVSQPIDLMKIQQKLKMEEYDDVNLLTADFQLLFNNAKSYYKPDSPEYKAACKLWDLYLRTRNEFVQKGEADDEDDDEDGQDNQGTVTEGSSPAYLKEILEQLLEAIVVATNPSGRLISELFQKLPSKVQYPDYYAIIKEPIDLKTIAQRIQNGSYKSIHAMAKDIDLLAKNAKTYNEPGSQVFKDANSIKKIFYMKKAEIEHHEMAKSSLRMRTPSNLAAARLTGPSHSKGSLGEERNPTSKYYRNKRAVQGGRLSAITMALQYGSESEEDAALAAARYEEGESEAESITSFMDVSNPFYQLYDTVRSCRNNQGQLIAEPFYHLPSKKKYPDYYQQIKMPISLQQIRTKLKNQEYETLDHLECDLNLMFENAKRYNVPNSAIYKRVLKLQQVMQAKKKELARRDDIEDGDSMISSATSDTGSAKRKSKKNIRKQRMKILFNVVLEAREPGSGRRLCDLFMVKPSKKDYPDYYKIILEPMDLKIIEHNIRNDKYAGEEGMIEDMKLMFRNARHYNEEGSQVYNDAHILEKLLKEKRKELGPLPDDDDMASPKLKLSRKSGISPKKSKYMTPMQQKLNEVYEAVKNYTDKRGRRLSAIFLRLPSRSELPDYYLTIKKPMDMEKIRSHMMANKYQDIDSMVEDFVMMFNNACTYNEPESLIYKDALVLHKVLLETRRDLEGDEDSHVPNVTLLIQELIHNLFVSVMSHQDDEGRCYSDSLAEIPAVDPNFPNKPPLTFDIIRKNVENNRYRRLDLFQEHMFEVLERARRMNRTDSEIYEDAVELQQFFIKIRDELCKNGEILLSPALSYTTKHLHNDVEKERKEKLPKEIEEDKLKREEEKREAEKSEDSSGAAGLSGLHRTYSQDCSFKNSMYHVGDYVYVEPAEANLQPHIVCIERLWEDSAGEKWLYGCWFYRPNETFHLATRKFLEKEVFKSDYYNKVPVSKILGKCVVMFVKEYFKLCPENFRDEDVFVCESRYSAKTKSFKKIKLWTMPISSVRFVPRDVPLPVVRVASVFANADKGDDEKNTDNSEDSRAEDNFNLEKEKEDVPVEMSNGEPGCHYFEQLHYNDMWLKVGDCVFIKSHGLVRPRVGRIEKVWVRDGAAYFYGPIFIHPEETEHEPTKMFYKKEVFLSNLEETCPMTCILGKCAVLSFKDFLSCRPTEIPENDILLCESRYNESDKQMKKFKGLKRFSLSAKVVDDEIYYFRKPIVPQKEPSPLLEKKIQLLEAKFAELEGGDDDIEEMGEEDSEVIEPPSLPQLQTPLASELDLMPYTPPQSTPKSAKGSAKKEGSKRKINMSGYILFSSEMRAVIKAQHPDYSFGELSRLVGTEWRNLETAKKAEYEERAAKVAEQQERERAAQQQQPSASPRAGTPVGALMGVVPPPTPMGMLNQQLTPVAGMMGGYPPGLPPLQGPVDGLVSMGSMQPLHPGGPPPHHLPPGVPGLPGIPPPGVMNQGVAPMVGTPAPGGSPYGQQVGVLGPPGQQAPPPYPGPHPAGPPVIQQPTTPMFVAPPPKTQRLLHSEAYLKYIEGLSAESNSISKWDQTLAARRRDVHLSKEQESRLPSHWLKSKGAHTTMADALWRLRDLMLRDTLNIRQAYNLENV

Compound: CN1N=C(c2ccccc2)c2cc(Cl)ccc2NC1=S
- ΔTm [1]: < 2 °C
- ΔTm [2]: < 2 °C
- ΔTm [3]: < 2 °C
- ΔTm [4]: < 2 °C
- ΔTm [5]: < 2 °C
- ΔTm [6]: < 2 °C
- ΔTm [7]: < 2 °C
- ΔTm [8]: < 2 °C
- ΔTm [9]: < 2 °C
- ΔTm [10]: < 2 °C
- ΔTm [11]: < 2 °C
- ΔTm [12]: < 2 °C

Compound: Cc1nnc2n1-c1ccc(Cl)cc1C(c1ccccc1)=NN2C
- Activity [13]: Active
- ΔTm [1]: < 2 °C
- Activity [14]: Active
- ΔTm [2]: < 2 °C
- ΔTm [3]: < 2 °C
- ΔTm [4]: < 2 °C
- Activity [15]: Active
- ΔTm [5]: < 2 °C
- Activity [16]: Active
- ΔTm [6]: < 2 °C
- Activity [17]: Active
- ΔTm [7]: < 2 °C
- Activity [18]: Active
- ΔTm [8]: < 2 °C
- ΔTm [19]: 4.2 °C
- Activity [20]: inactive
- ΔTm [9]: < 2 °C
- ΔTm [10]: < 2 °C
- Activity [21]: Active
- ΔTm [11]: < 2 °C
- Activity [22]: Active
- Activity [23]: Active
- ΔTm [12]: < 2 °C
- Activity [24]: Active
- Activity [25]: Active

Compound: CCC1=NCc2nnc(-c3ccncc3)n2-c2ccc(Cl)cc21
- ΔTm [1]: < 2 °C
- ΔTm [2]: < 2 °C
- ΔTm [3]: < 2 °C
- ΔTm [4]: < 2 °C
- ΔTm [5]: < 2 °C
- ΔTm [6]: < 2 °C
- ΔTm [7]: < 2 °C
- ΔTm [8]: < 2 °C
- ΔTm [9]: < 2 °C
- ΔTm [10]: < 2 °C
- ΔTm [11]: < 2 °C
- ΔTm [12]: < 2 °C

Compound: CCC1=NCc2nnc(C)n2-c2ccc(Cl)cc21
- ΔTm [1]: < 2 °C
- ΔTm [2]: < 2 °C
- ΔTm [3]: < 2 °C
- ΔTm [4]: < 2 °C
- ΔTm [5]: < 2 °C
- ΔTm [6]: < 2 °C
- ΔTm [7]: < 2 °C
- ΔTm [8]: < 2 °C
- ΔTm [9]: < 2 °C
- ΔTm [10]: < 2 °C
- ΔTm [11]: < 2 °C
- ΔTm [12]: < 2 °C

Compound: CC(=O)NNC1=Nc2ccc(Cl)cc2C(c2ccccc2)=NN1C
- ΔTm [1]: < 2 °C
- ΔTm [2]: < 2 °C
- ΔTm [3]: < 2 °C
- ΔTm [4]: < 2 °C
- ΔTm [5]: < 2 °C
- ΔTm [6]: < 2 °C
- ΔTm [7]: < 2 °C
- ΔTm [8]: < 2 °C
- ΔTm [9]: < 2 °C
- ΔTm [10]: < 2 °C
- ΔTm [11]: < 2 °C
- ΔTm [12]: < 2 °C

Compound: Cc1ncc2n1-c1ccc(Cl)cc1C(c1ccccc1F)=NC2
- Activity [13]: Active
- Activity [14]: Active
- Activity [15]: inactive
- Activity [16]: Active
- Activity [17]: Active
- Activity [18]: inactive
- Activity [20]: inactive
- Activity [21]: Active
- Activity [22]: inactive
- Activity [23]: Active
- Activity [24]: Active
- Activity [25]: Active

Compound: CN1N=C(c2ccccc2)c2cc(Cl)ccc2-n2c(N)nnc21
- ΔTm [1]: < 2 °C
- ΔTm [2]: < 2 °C
- ΔTm [3]: < 2 °C
- ΔTm [4]: < 2 °C
- ΔTm [5]: < 2 °C
- ΔTm [6]: < 2 °C
- ΔTm [7]: < 2 °C
- ΔTm [8]: < 2 °C
- ΔTm [9]: < 2 °C
- ΔTm [10]: < 2 °C
- ΔTm [11]: < 2 °C
- ΔTm [12]: < 2 °C

Compound: CCC1=NCc2nnc(-c3cccc(OC)c3)n2-c2ccc(Cl)cc21
- ΔTm [1]: < 2 °C
- ΔTm [2]: < 2 °C
- ΔTm [3]: < 2 °C
- ΔTm [4]: < 2 °C
- ΔTm [5]: < 2 °C
- ΔTm [6]: < 2 °C
- ΔTm [7]: < 2 °C
- ΔTm [8]: < 2 °C
- ΔTm [9]: < 2 °C
- ΔTm [10]: < 2 °C
- ΔTm [11]: < 2 °C
- ΔTm [12]: < 2 °C

Compound: CCC1=NCc2nnc(CC)n2-c2ccc(Cl)cc21
- ΔTm [1]: < 2 °C
- ΔTm [2]: < 2 °C
- ΔTm [3]: < 2 °C
- ΔTm [4]: < 2 °C
- ΔTm [5]: < 2 °C
- ΔTm [6]: < 2 °C
- ΔTm [7]: < 2 °C
- ΔTm [8]: < 2 °C
- ΔTm [9]: < 2 °C
- ΔTm [10]: < 2 °C
- ΔTm [11]: < 2 °C
- ΔTm [12]: < 2 °C

Compound: CN1N=C(c2ccccc2)c2cc(Cl)ccc2-n2c1n[nH]c2=O
- ΔTm [1]: < 2 °C
- ΔTm [2]: < 2 °C
- ΔTm [3]: < 2 °C
- ΔTm [4]: < 2 °C
- ΔTm [5]: < 2 °C
- ΔTm [6]: < 2 °C
- ΔTm [7]: < 2 °C
- ΔTm [8]: < 2 °C
- ΔTm [9]: < 2 °C
- ΔTm [10]: < 2 °C
- ΔTm [11]: < 2 °C
- ΔTm [12]: < 2 °C

Compound: Cc1nnc2n1-c1ccc(Cl)cc1C(c1ccccc1)=NC2 [ALPRAZOLAM]
- Activity [13]: Active
- Activity [14]: Active
- Activity [15]: inactive
- Activity [16]: Active
- Activity [17]: Active
- Activity [18]: inactive
- ΔTm [19]: 4.7 °C
- Activity [20]: inactive
- Activity [21]: Active
- Activity [22]: Active
- Activity [23]: Active
- Activity [24]: Active
- Activity [25]: Active

Compound: Clc1ccc2c(c1)C(c1ccccc1)=NCc1nncn1-2
- Activity [13]: Active
- Activity [14]: inactive
- Activity [15]: inactive
- Activity [16]: Active
- Activity [17]: Active
- Activity [18]: inactive
- Activity [20]: inactive
- Activity [21]: inactive
- Activity [22]: inactive
- Activity [23]: inactive
- Activity [24]: Active
- Activity [25]: Active

Compound: CCC1=NCc2nnc(-c3ccccc3)n2-c2ccc(Cl)cc21
- ΔTm [1]: < 2 °C
- ΔTm [2]: < 2 °C
- ΔTm [3]: < 2 °C
- ΔTm [4]: < 2 °C
- ΔTm [5]: < 2 °C
- ΔTm [6]: < 2 °C
- ΔTm [7]: < 2 °C
- ΔTm [8]: < 2 °C
- ΔTm [9]: < 2 °C
- ΔTm [10]: < 2 °C
- ΔTm [11]: < 2 °C
- ΔTm [12]: < 2 °C

Compound: CCOC(=O)c1ncn2c1[C@@H]1CCCN1C(=O)c1cc(OC)ccc1-2
- Activity [13]: Active
- Activity [14]: inactive
- Activity [15]: inactive
- Activity [16]: Active
- Activity [17]: inactive
- Activity [18]: inactive
- Activity [20]: inactive
- Activity [21]: Active
- Activity [22]: inactive
- Activity [23]: inactive
- Activity [24]: inactive
- Activity [25]: Active

Compound: CCC1=NCC(=S)Nc2ccc(Cl)cc21
- ΔTm [1]: < 2 °C
- ΔTm [2]: < 2 °C
- ΔTm [3]: < 2 °C
- ΔTm [4]: < 2 °C
- ΔTm [5]: < 2 °C
- ΔTm [6]: < 2 °C
- ΔTm [7]: < 2 °C
- ΔTm [8]: < 2 °C
- ΔTm [9]: < 2 °C
- ΔTm [10]: < 2 °C
- ΔTm [11]: < 2 °C
- ΔTm [12]: < 2 °C

Compound: CCC1=NCC(=O)Nc2ccc(Cl)cc21
- ΔTm [1]: < 2 °C
- ΔTm [2]: < 2 °C
- ΔTm [3]: < 2 °C
- ΔTm [4]: < 2 °C
- ΔTm [5]: < 2 °C
- ΔTm [6]: < 2 °C
- ΔTm [7]: < 2 °C
- ΔTm [8]: < 2 °C
- ΔTm [9]: < 2 °C
- ΔTm [10]: < 2 °C
- ΔTm [11]: < 2 °C
- ΔTm [12]: < 2 °C
